≈ marks a conversion by molar mass, not a printed value. One block for each compound: values may come before it.
Legend:
Type in all cases: physicochemical
[1] = Chemical stability in pharmaceutical solvents (weight % remaining in solution, LCMS)
Procedure: (§1) Table 4 provides the chemical stability data in some pharmaceutical solvents, expressed as the weight percentage (% w/w) of the final fosfluconazole derivative produced and characterized in example 1 that remained in solution after a certain period of time. The test was carried out twice, and the remaining weight % was determined by Liquid Chromatography-Mass Spectrometry (LCMS).
as §1, with “5” for “4”, “solvents at 25° C.,” for “solvents,”, “2” for “1”
as §1, with “6” for “4”, “solvents at 25° C.,” for “solvents,”, “3” for “1”
as §1, with “7” for “4”, “4” for “1”
as §1, with “8” for “4”, “5” for “1”
as §1, with “9” for “4”, “6” for “1”
as §1, with “10” for “4”, “14” for “1”

[2] = Solubility of fosfluconazole derivatives in pharmaceutical solvents (Table 2); settings: for solubility at 24 h: thermodynamic from solid
Procedure: The solubility determination method used was as follows: a suspension of 6 mg of the tested fosfluconazole derivative in 500 μl of the applicable pharmaceutical solvent was rotatively shaken for 24 hours at 800 rpm at 25° C. The saturated fosfluconazole derivative solution was filtered (0.45 μm) and 150 μl of the filtrate was diluted in dimethylsulfoxide (50 μl DMSO). This solution was assayed, each assay being carried out in three-fold, by measurement with Liquid Chromatography-Mass Spectrometry (LCMS, 1 μl and 10 μl injection). Standards were prepared by dissolving the corresponding fosfluconazole derivative in DMSO (1 mg/ml). To determine the solubility, four aliquots (0.5, 1, 2, 4 μl) of the standard solution were injected using the same LCMS conditions as for the above exemplary samples.

[3] = Solubility in pharmaceutical solvents (Table 3); settings: for calculated fluconazole concentration: value within brackets
Source text: The values within brackets in Table 3 correspond to the calculated fluconazole concentrations taking into account the molecular weights of the relevant fosfluconazole prodrug and fluconazole itself.

[4] = H2O/Kleptose HPB (60/40), 4 hours
[5] = H2O/Kleptose HPB (60/40), 1 day
[6] = H2O/Kleptose HPB (60/40), 2 days
[7] = H2O/Kleptose HPB (60/40), 7 days
[8] = H2O/Kleptose HPB (60/40), 14 days
[9] = aqueous with cosolvent or surfactant or cyclodextrin, H2O/Cremophor RH 40 (80/20), 25° C.
[10] = aqueous with cosolvent or surfactant or cyclodextrin, H2O/Kleptose HPB (60/40), 25° C.
[11] = aqueous with cosolvent or surfactant or cyclodextrin, H2O/Vitamin E TPGS (90/10), 25° C.
[12] = aqueous with cosolvent or surfactant or cyclodextrin, H2O/polysorbate 80 (80/20), 25° C.
[13] = oil or lipid, Miglyol 812, 25° C.
[14] = organic solvent or mixture, PEG 400, 25° C.
[15] = water (pH 2), aqueous buffer, H2O (pH = 2), 25° C.
[16] = water (pH 7), aqueous buffer, H2O (pH = 7), 25° C.
[17] = water (pH 10), aqueous buffer, H2O (pH = 10), 25° C.

Compound: 2-((2-(2,4-difluorophenyl)-1,3-di(1H-1,2,4-triazol-1-yl)propan-2-yloxy)(ethoxy)phosphoryloxy)ethyl (3S,8R,9S,10R,13S,14S,17R)-10,13,17-trimethyl-17-((R)-6-methylheptan-2-yl)-2,3,4,7,8,9,10,11,12,13,14,15,16,17-tetradecahydro-1H-cyclopenta[a]phenanthren-3-yl succinate [Example 6]
- weight percentage that remained in solution ([1]; H2O (pH = 2), 2 hours): 98.4 % w/w
- weight percentage that remained in solution ([1]; H2O (pH = 2), 4 hours): 44.0 % w/w
- weight percentage that remained in solution ([1]; H2O (pH = 2), 1 day): 55.3 % w/w
- weight percentage that remained in solution ([1]; H2O (pH = 2), 2 days): 46.4 % w/w
- weight percentage that remained in solution ([1]; H2O (pH = 2), 7 days): 0.0 % w/w
- weight percentage that remained in solution ([1]; H2O (pH = 2), 14 days): 0.0 % w/w
- weight percentage that remained in solution ([1]; H2O (pH = 7), 2 hours): 100.0 % w/w
- weight percentage that remained in solution ([1]; H2O (pH = 7), 4 hours): 100.0 % w/w
- weight percentage that remained in solution ([1]; H2O (pH = 7), 1 day): 100.0 % w/w
- weight percentage that remained in solution ([1]; H2O (pH = 7), 2 days): 100.0 % w/w
- weight percentage that remained in solution ([1]; H2O (pH = 7), 7 days): 100.0 % w/w
- weight percentage that remained in solution ([1]; H2O (pH = 7), 14 days): 100.0 % w/w
- weight percentage that remained in solution ([1]; H2O (pH = 10), 2 hours): 100.0 % w/w
- weight percentage that remained in solution ([1]; H2O (pH = 10), 4 hours): 100.0 % w/w
- weight percentage that remained in solution ([1]; H2O (pH = 10), 1 day): 100.0 % w/w
- weight percentage that remained in solution ([1]; H2O (pH = 10), 2 days): 100.0 % w/w
- weight percentage that remained in solution ([1]; H2O (pH = 10), 7 days): 100.0 % w/w
- weight percentage that remained in solution ([1]; H2O (pH = 10), 14 days): 100.0 % w/w
- weight percentage that remained in solution ([1]; H2O/Kleptose HPB (60/40), 2 hours): 86.7 % w/w
- weight percentage that remained in solution [1, 4]: 86.7 % w/w
- weight percentage that remained in solution [1, 5]: 86.7 % w/w
- weight percentage that remained in solution [1, 6]: 86.7 % w/w
- weight percentage that remained in solution [1, 7]: 86.7 % w/w
- weight percentage that remained in solution [1, 8]: 86.7 % w/w
- weight percentage that remained in solution ([1]; PEG 400, 2 hours): 100.0 % w/w
- weight percentage that remained in solution ([1]; PEG 400, 4 hours): 100.0 % w/w
- weight percentage that remained in solution ([1]; PEG 400, 1 day): 100.0 % w/w
- weight percentage that remained in solution ([1]; PEG 400, 2 days): 100.0 % w/w
- weight percentage that remained in solution ([1]; PEG 400, 7 days): 100.0 % w/w
- weight percentage that remained in solution ([1]; PEG 400, 14 days): 100.0 % w/w
- solubility ([2]; H2O (pH = 2), 25° C.): <1 µg/mL
- solubility ([2]; H2O (pH = 7), 25° C.): <1 µg/mL
- solubility ([2]; H2O (pH = 10), 25° C.): <1 µg/mL
- solubility ([2]; H2O/Cremophor RH 40 (80/20), 25° C.): <1 µg/mL
- solubility ([2]; H2O/Kleptose HPB (60/40), 25° C.): 600 µg/mL
- solubility ([2]; H2O/Vitamin E TPGS (90/10), 25° C.): 6200 µg/mL
- solubility ([2]; H2O/polysorbate 80 (80/20), 25° C.): >10000 µg/mL
- solubility ([2]; Miglyol 812, 25° C.): >10000 µg/mL
- solubility ([2]; PEG 400, 25° C.): >10000 µg/mL
- solubility ([3]; Benzylalcohol): ≥ 226.7
- calculated fluconazole concentration ([3]; Benzylalcohol): (74.8)
- solubility ([3]; Benzylbenzoate): ≥ 226.7
- calculated fluconazole concentration ([3]; Benzylbenzoate): (74.8)
- solubility ([3]; Ethylbenzoate): ≥ 226.7
- calculated fluconazole concentration ([3]; Ethylbenzoate): (74.8)
- solubility ([3]; Miglyol 812): 200.0
- calculated fluconazole concentration ([3]; Miglyol 812): (66.0)
- solubility ([3]; N-methylpyrrolidone): ≥ 226.7
- calculated fluconazole concentration ([3]; N-methylpyrrolidone): (74.8)
- solubility ([3]; Sesame oil (LCT)): 23.3
- calculated fluconazole concentration ([3]; Sesame oil (LCT)): (7.7)

Compound: CCOP(=O)(O[C@H]1CC[C@@]2(C)C(=CC[C@H]3[C@@H]4CC[C@H]([C@H](C)CCCC(C)C)[C@@]4(C)CC[C@@H]32)C1)OC(Cn1cncn1)(Cn1cncn1)c1ccc(F)cc1F (stereo partly shown) [Example 5]
- solubility at 24 h [2, 9]: 900 µg/mL (≈ 1.15 mM)
- solubility at 24 h [2, 10]: 500 µg/mL (≈ 0.639 mM)
- solubility at 24 h [2, 11]: 1400 µg/mL (≈ 1.79 mM)
- solubility at 24 h [2, 12]: 4500 µg/mL (≈ 5.75 mM)
- solubility at 24 h [2, 13]: 9700 µg/mL (≈ 12.4 mM)
- solubility at 24 h [2, 14]: 4100 µg/mL (≈ 5.24 mM)
- solubility at 24 h [2, 15]: < 1 µg/mL
- solubility at 24 h [2, 16]: < 1 µg/mL
- solubility at 24 h [2, 17]: < 1 µg/mL
- solubility ([3]; Benzylalcohol, organic solvent or mixture, read-out: solubility): ≥ 227000 µg/mL
- solubility ([3]; Benzylbenzoate, organic solvent or mixture, read-out: solubility): 90000 µg/mL (≈ 115 mM)
- solubility ([3]; Ethylbenzoate, organic solvent or mixture, read-out: solubility): 133000 µg/mL (≈ 170 mM)
- solubility ([3]; Miglyol 812, oil or lipid, read-out: solubility): 12000 µg/mL (≈ 15.3 mM)
- solubility ([3]; N-methylpyrrolidone, organic solvent or mixture, read-out: solubility): ≥ 227000 µg/mL
- solubility ([3]; Sesame oil (LCT), oil or lipid, read-out: solubility): 10000 µg/mL (≈ 12.8 mM)

- weight percentage that remained in solution ([1]; H2O (pH = 2), 4 hours): 99.0 % w/w
- weight percentage that remained in solution ([1]; H2O (pH = 2), 1 day): 99.1 % w/w
- weight percentage that remained in solution ([1]; H2O (pH = 2), 2 days): 99.2 % w/w
- weight percentage that remained in solution ([1]; H2O (pH = 2), 7 days): 99.2 % w/w
- weight percentage that remained in solution ([1]; H2O (pH = 2), 14 days): 99.6 % w/w
- weight percentage that remained in solution ([1]; H2O (pH = 7), 4 hours): 99.1 % w/w
- weight percentage that remained in solution ([1]; H2O (pH = 7), 1 day): 99.3 % w/w
- weight percentage that remained in solution ([1]; H2O (pH = 7), 2 days): 99.2 % w/w
- weight percentage that remained in solution ([1]; H2O (pH = 7), 7 days): 99.2 % w/w
- weight percentage that remained in solution ([1]; H2O (pH = 7), 14 days): 99.4 % w/w
- weight percentage that remained in solution ([1]; H2O (pH = 10), 4 hours): 99.3 % w/w
- weight percentage that remained in solution ([1]; H2O (pH = 10), 1 day): 99.3 % w/w
- weight percentage that remained in solution ([1]; H2O (pH = 10), 2 days): 99.4 % w/w
- weight percentage that remained in solution ([1]; H2O (pH = 10), 7 days): 99.3 % w/w
- weight percentage that remained in solution ([1]; H2O (pH = 10), 14 days): 99.9 % w/w
- weight percentage that remained in solution [1, 4]: 99.5 % w/w
- weight percentage that remained in solution [1, 5]: 99.3 % w/w
- weight percentage that remained in solution [1, 6]: 99.2 % w/w
- weight percentage that remained in solution [1, 7]: 99.3 % w/w
- weight percentage that remained in solution [1, 8]: 100.0 % w/w
- weight percentage that remained in solution ([1]; PEG 400, 4 hours): 99.3 % w/w
- weight percentage that remained in solution ([1]; PEG 400, 1 day): 99.3 % w/w
- weight percentage that remained in solution ([1]; PEG 400, 2 days): 99.4 % w/w
- weight percentage that remained in solution ([1]; PEG 400, 7 days): 99.4 % w/w
- weight percentage that remained in solution ([1]; PEG 400, 14 days): 100.0 % w/w
- solubility at 24 h [2, 9]: > 10000 µg/mL
- solubility at 24 h [2, 10]: > 10000 µg/mL
- solubility at 24 h [2, 11]: > 10000 µg/mL
- solubility at 24 h [2, 12]: > 10000 µg/mL
- solubility at 24 h [2, 13]: 1200 µg/mL
- solubility at 24 h [2, 14]: > 10000 µg/mL
- solubility at 24 h [2, 15]: > 10000 µg/mL
- solubility at 24 h [2, 16]: > 10000 µg/mL
- solubility at 24 h [2, 17]: > 10000 µg/mL
Compound: CCCCCCCCCOP(=O)([O-])OC(Cn1cncn1)(Cn1cncn1)c1ccc(F)cc1F.[Na+] [Example 14, sodium 2-(2,4-difluorophenyl)-1,3-di(1H-1,2,4-triazol-1-yl)propan-2-yl nonyl phosphate]

From US20120010173A1 (SEPS PHARMA N.V., priority 2009, published 2012)
